From PMC7602804 (Nutrients, 2020)
“Also recorded” adds a separate entry of the source. One block for each compound: values may come before it. No end group written: not given here.

Legend:
Caco-2 monolayers [1] = system: Caco-2 monolayers; parameters: method as in PMID 20397193, PMID 23561097; details: Caco-2 monolayer; cited from earlier work
Caco-2 monolayers [2] = assay: Apical to basolateral transport of milk peptides across Caco-2 monolayers (LC-MS/MS of basolateral medium); type: in vitro ADME, human; details: Caco-2, 3 weeks on PET inserts 0.4 μm, TEER above 400 Ω cm^2; A-B; mix of 192 purified milk peptides 0.1 mg/mL apical; HBSS + 10 mM HEPES; 2.5 h; LC-MS/MS of basolateral medium; identified in two out of three experiments
Experimental: The human colorectal adenocarcinoma cell line, Caco-2, was obtained from DSMZ (Braunschweig, Germany). The cells were grown to 50–60% confluence in Dulbecco’s Modified Eagle Medium (DMEM) Glutamax cell culture medium, supplemented with 10% heat-inactivated fetal bovine serum, 100 units/mL of penicillin and 100 μg/mL of streptomycin (all from Invitrogen, Carlsbad, CA, USA) in a humidified 5% CO2/95% air atmosphere at 37 °C. The cells used in the experiments were between passages 30 and 40.
(§1) The Caco-2 cells used for transport studies were seeded in polyethylene terephthalate culture inserts, with a pore size of 0.4 μm and a growth area of 0.33 cm^2 at a density of approximately 25,000 cells/insert. The Caco-2 cells were grown for three weeks on the porous membrane before they were used for transepithelial transport. The integrity of the monolayers was confirmed by measuring the TEER using a Millicell ERS-2 volt ohmmeter. Only Caco-2 monolayers with TEER values above 400 Ω cm^2 were used for the transport analysis.
(§2) Following the TEER value measurement, the Caco-2 and PBEC monolayers were gently washed twice with phosphate-buffered saline, and the transport medium (Hanks’ Balanced Salt solution supplemented with 10 mM of HEPES) was added to the apical and basolateral compartments. The inserts were incubated for 15 min or 2.5 h with the purified milk peptides (0.1 mg/mL) or the synthetic PIGSENSEKTTMPLW peptide (2 µg/mL), after which medium from the apical and basolateral compartments were collected for liquid chromatography tandem mass spectrometry (LC-MS/MS) analysis. Inserts incubated with a medium without peptides served as the control in the transport experiments. Membrane integrity was validated by addition of D-[1-^14C]-Mannitol (3.5 µM, 56.8 mCi/mmol) (Perkin Elmer, Waltham, MA, USA) to the upper chamber of the culture inserts with or without milk peptides for 2.5 h. The passive permeability experiments were performed on four or five individual culture inserts. Basolateral samples were mixed with Ultima Gold liquid scintillation fluid (Perkin Elmer) and counted in a Tri-Carb 2810 TR scintillation counter (Perkin Elmer). The apparent permeability coefficient (Papp, cm/s) was determined as Papp = (dQ/dt)/(AC0) where dQ/dt is the steady state flux (cpm/s), A is the surface area of the cell culture insert membrane and C0 is the initial concentration in the apical compartment (cpm/mL).
LC-MS/MS analysis was performed on a TripleTOF 6600 mass spectrometer equipped with an Exigent nanoLC 415 system (AB Sciex, Les Ulis, France). All samples were micro-purified using 3 M Empore C18 discs packed in pipette tips. The lyophilized samples were dissolved in 0.1% formic acid, injected on a trap column (2 cm × 100 µm inner diameter) and separated on an analytical column packed in-house in a pulled emitter (15 cm × 75 µm inner diameter). All columns were packed with ReproSil-Pur C18-AQ 3 µm resin (courtesy of Dr. Marisch, Ammerbuch-Entringen, Germany). Peptides were eluted directly into the mass spectrometer with a linear gradient from 5 to 35% solvent B (0.1% formic acid in acetonitrile) for 20 min with a flowrate of 250 nL/min, followed after 10 min with 100% solvent B. Data files were converted to Mascot Generic Format using the Raw Converter (version 1.1.0.18) (http://fields.scripps.edu/rawconv/) or the AB Sciex MS Data Converter beta 1.1 (AB Sciex, Les Ulis, France). The generated peak lists were searched against the Bos taurus proteome (UniProt database, https://www.uniprot.org)) using an in-house Mascot search engine (Matrix Science, London, UK). The searches were made without specifying a protease and with oxidation (Met) and phosphorylation (ST) as variable modifications. Peptide tolerance was set to 10 ppm and MS/MS tolerance was set to 0.2 Da. […]

[3] = system: porcine brain endothelial cell (PBEC) monolayers; assay: Apical to basolateral transport of milk peptides across porcine brain endothelial cell (PBEC) monolayers, blood-brain barrier model; type: in vitro ADME; details: primary PBEC on polyester inserts 0.4 μm, astrocyte conditioned medium, TEER higher than 800 Ω cm^2; A-B; mix of 192 milk peptides 0.1 mg/mL apical; HBSS + 10 mM HEPES; 2.5 h; LC-MS/MS; five independent studies; αS1 peptide 'or' its truncated peptides stated collectively
Experimental: Capillaries were isolated from the brain cortices of domestic pigs 5–6 months old as previously described. PBECs were cultured by plating the capillaries in T75 flasks coated with collagen IV (500 µg/mL) and fibronectin (100 µg/mL) in DMEM-F12 medium, supplemented with 10% plasma-derived serum (First Link, Wolverhampton, UK), heparin (15 U), 100 units/mL of penicillin and 100 µg/mL of streptomycin (PBEC growth medium), and cultured in an incubator with humidified 5% CO2/95% air at 37 °C. Puromycin (4 µg/mL) was added to the growth medium for the first three days to obtain a pure culture of PBECs.
Astrocyte conditioned medium was collected every third day from primary rat astrocytes, sterile filtered and frozen until use. Isolation of primary rat astrocytes and preparation of astrocyte conditioned media were carried out as described in [20].
(§3) PBECs were grown until 70–80% confluency as described above and then passaged onto polyester culture inserts with a pore size of 0.4 μm and a growth area of 1.12 cm^2 (Costar, Corning, NY, USA) at a density of 1.1 × 10^5 cells/cm^2 in the PBEC growth medium. In the basolateral chamber, the medium consisted of 1 mL of PBEC growth medium and 0.5 mL of astrocyte conditioned medium. The medium was supplemented with differentiation factors: 550 nM of hydrocortisone, 250 μM of 8-(4-chlorophenylthio)adenosine-3′,5′-cyclic monophosphate (cAMP) and 17.5 μM of RO-201724 two days after seeding. The next day, the integrity of the PBEC monolayer was confirmed by measuring the TEER. Only PBEC monolayers with TEER values higher than 800 Ω cm^2 were used for the transport analysis.
as §2
LC-MS/MS analysis was performed on a TripleTOF 6600 mass spectrometer equipped with an Exigent nanoLC 415 system (AB Sciex, Les Ulis, France). All samples were micro-purified using 3 M Empore C18 discs packed in pipette tips. The lyophilized samples were dissolved in 0.1% formic acid, injected on a trap column (2 cm × 100 µm inner diameter) and separated on an analytical column packed in-house in a pulled emitter (15 cm × 75 µm inner diameter). All columns were packed with ReproSil-Pur C18-AQ 3 µm resin (courtesy of Dr. Marisch, Ammerbuch-Entringen, Germany). […]

[4] = system: PBEC monolayer (BBB model); assay: Passive permeability (Papp) of mannitol across PBEC monolayers, membrane integrity; type: in vitro ADME, porcine; details: D-[1-14C]-Mannitol 3.5 µM, 56.8 mCi/mmol, apical, with or without milk peptides; A-B; 2.5 h; HBSS + 10 mM HEPES; liquid scintillation counting; mean ± standard deviation of four or five inserts
Experimental: as §3, with “Only PBEC monolayers with TEER values higher than 800 Ω cm^2 were used for the transport analysis.” left out
(§4) Following the TEER value measurement, the Caco-2 and PBEC monolayers were gently washed twice with phosphate-buffered saline, and the transport medium (Hanks’ Balanced Salt solution supplemented with 10 mM of HEPES) was added to the apical and basolateral compartments. […] Basolateral samples were mixed with Ultima Gold liquid scintillation fluid (Perkin Elmer) and counted in a Tri-Carb 2810 TR scintillation counter (Perkin Elmer). The apparent permeability coefficient (Papp, cm/s) was determined as Papp = (dQ/dt)/(AC0) where dQ/dt is the steady state flux (cpm/s), A is the surface area of the cell culture insert membrane and C0 is the initial concentration in the apical compartment (cpm/mL). […]

Caco-2 monolayer = assay: Passive permeability (Papp) of mannitol across Caco-2 monolayers, membrane integrity; type: in vitro ADME, human; details: D-[1-14C]-Mannitol 3.5 µM, 56.8 mCi/mmol, apical, with or without milk peptides; A-B; 2.5 h; HBSS + 10 mM HEPES; liquid scintillation counting; mean ± standard deviation of four or five inserts
Experimental: as §1, §4

[5] = system: pepsin from porcine gastric mucosa, then trypsin and chymotrypsin from a bovine pancreas and elastase; assay: purified milk peptide mix: pepsin in 0.15 M NaCl pH 2.5 (1:100 w/w), then trypsin, chymotrypsin (1:100 w/w) and elastase (1:500 w/w) in 50 mM ammonium bicarbonate pH 7.6; details: 37 °C, up to 60 min
[6] = primary porcine brain endothelial cell (PBEC) monolayers in culture inserts; transport medium (Hanks' Balanced Salt solution supplemented with 10 mM of HEPES); basolateral medium analysed; details: up to 2.5 h
[7] = system: pepsin from porcine gastric mucosa, then trypsin and chymotrypsin from a bovine pancreas and elastase; assay: synthetic peptide: pepsin in 0.15 M NaCl pH 2.5 (1:100 w/w, 60 min), then trypsin, chymotrypsin (1:100 w/w) and elastase (1:500 w/w) in 50 mM ammonium bicarbonate pH 7.6; details: 37 °C, up to 270 min
[8] = Caco-2 monolayers in culture inserts; transport medium (Hanks' Balanced Salt solution supplemented with 10 mM of HEPES); basolateral medium analysed; details: human, up to 2.5 h
[9] = system: angiotensin-converting enzyme (ACE); details: potential anti-hypertensive peptides; cited from earlier work
Description: The ACE-inhibitory ability is presumably mediated through the derived fragments TTMPLW and KTTMP [36, 37]. Thus, the transport of this peptide across physiological barriers could influence the regulation of arterial blood pressure. Furthermore, ACE is present in the brain and plays a key role in high salt induced sympatho-excitation, hypertension, neuroprotection, cognition and cerebr ...

Compound: EPVLGPVRGPFPIIV [EPVLGPVRGPFPIIV]
Crossing of in vitro intestinal barrier models in other studies (Caco-2 monolayers [1]): shown to cross over in vitro intestinal barrier models | Peptide identified in the basolateral chamber of Caco-2 monolayers (transported) (Caco-2 monolayers [2]): not transported across the Caco-2 monolayers | Peptide identified in the basal compartment (brain side) of the PBEC BBB model (transported) [3]: identified in the basal compartment of the BBB model

Compound: OC[C@@H](O)[C@@H](O)[C@H](O)[C@H](O)CO [D-[1-^14C]-Mannitol]
Papp for the BBB (PBEC monolayer) [4]: 1.09 ± 0.14 × 10^−6 cm s^−1 | Apparent permeability coefficient (Papp) of the Caco-2 monolayer (Caco-2 monolayer): 9.45 ± 2 × 10^−7 cm s^−1

Compound: PIGSENSEKTTMPLW
not cleaved [5]: peptide ion still observed after pepsin and pancreatic enzyme digestion | fragment found [6]: PIGSENSEKTTMP (Mox), 2.5 h; also recorded: PIGSENSEKTT, 2.5 h | not cleaved [7]: ion corresponding to the peptide observed even after 270 min of digestion | fragment found [8]: PIGSENSEKTTMP (Mox), 2.5 h; also recorded: PIGSENSEKTT, 2.5 h

Peptide identified in the basal compartment (brain side) of the PBEC BBB model (transported) [3]: identified in all experiments
Compound: IGSENSEKTTMP [truncated derivative of the αS1-casein peptide …]
Inhibition of the activity of angiotensin-converting enzyme (ACE) [9]: can inhibit the activity of angiotensin-converting enzyme
